Data as given in PMC7079008, “Compactness of Protein Folds Alters Disulfide‐Bond Reducibility by Three Orders of Magnitude: A Comprehensive Kinetic Case Study on the Reduction of Differently Sized Tryptophan Cage Model Proteins” (Chembiochem, 2019).
Where a SMILES comes first, the peptide text is derived from it. Bridges are numbered along the chain shown (N, C = ends).

Test: Complete redox cycle after DTT reduction: reoxidation by dissolved O2 and precipitation, 1H NMR
Assay type: physicochemical
Details: twofold excess of DTT, pH 7, 15 °C, sealed NMR tube
Procedure: Incomplete conversion, despite the presence of a large excess of the RA, provided evidence for the reoxidation of the reduced SS bond of the studied model systems. To study this process in detail, the in situ reoxidation of the DTT‐reduced protein samples at […] in sealed NMR tubes (pH 7, 15 °C, twofold excess of DTT) was monitored for several weeks.
Figure 8 The 50‐membered structure ensembles of A) E11_SS⇄E11_2SH and B) E5_SS⇄E5_2SH. The fold of E11_2SH is more compact than that of E5_2SH, which has more “open” conformers, in which the Cys residues are far from each other. This allows intermolecular, rather than intramolecular, reoxidation. The dissolved oxidized and reduced protein concentrations of C) E11_SS⇄E11_2 SH and D) E5_SS⇄E5_2SH (oxidized: blue; reduced: green) as a function of time. […] E) Estimated parameters of the complete redox cycles. […] Figure S11 contains all data for parameter estimation of E11_SS, E5_SS, and E2_SS. […]
Reoxidation can take place both intra‐ and intermolecularly. […] According to our semiquantitative analysis based on the recorded ^1H NMR spectra, the integral changes of the Trp Hϵ1 resonances both in the oxidized and reduced forms of the protein during reduction with DTT show a decrease in concentration over the observed period of redox time for both E2_SS and E5_SS. […]

SMILES	decrease of the initial dissolved protein concentration at the end of a complete redox cycle
CC[C@H](C)[C@@H]1NC(=O)[C@H](Cc2ccc(O)cc2)NC(=O)[C@H](CC(C)C)NC(=O)[C@H](CCCNC(=N)N)NC(=O)[C@H](C(C)C)NC(=O)[C@@H](NC(=O)[C@H](CCC(=O)O)NC(=O)[C@H](CCC(=O)O)NC(=O)[C@@H](N)CCC(=O)O)CSSC[C@@H](C(=O)O)NC(=O)[C@@H]2CCCN2C(=O)[C@@H]2CCCN2C(=O)[C@@H]2CCCN2C(=O)[C@H](CCCNC(=N)N)NC(=O)CNC(=O)[C@H](CO)NC(=O)[C@H](CO)NC(=O)[C@@H]2CCCN2C(=O)CNC(=O)CNC(=O)[C@H](CC(=O)O)NC(=O)[C@H](CCCCN)NC(=O)[C@H](CC(C)C)NC(=O)[C@H](Cc2c[nH]c3ccccc23)NC(=O)[C@H](CCC(N)=O)NC1=O [E5_SS] (H-EEECVRLYIQWLKDGGPSSGRPPPC-OH; disulfide 4-25)	68%
CC[C@H](C)[C@@H]1NC(=O)[C@H](Cc2ccc(O)cc2)NC(=O)[C@H](CC(C)C)NC(=O)[C@H](CCCNC(=N)N)NC(=O)[C@H](C(C)C)NC(=O)[C@@H](NC(=O)[C@H](CCC(=O)O)NC(=O)[C@H](CCC(=O)O)NC(=O)[C@H](CCC(=O)O)NC(=O)[C@H](CCSC)NC(=O)[C@H](CCC(N)=O)NC(=O)[C@H](CCCCN)NC(=O)[C@H](CO)NC(=O)[C@H](CC(C)C)NC(=O)[C@@H](N)CC(=O)O)CSSC[C@@H](C(=O)O)NC(=O)[C@@H]2CCCN2C(=O)[C@@H]2CCCN2C(=O)[C@@H]2CCCN2C(=O)[C@H](CCCNC(=N)N)NC(=O)CNC(=O)[C@H](CO)NC(=O)[C@H](CO)NC(=O)[C@@H]2CCCN2C(=O)CNC(=O)CNC(=O)[C@H](CC(=O)O)NC(=O)[C@H](CCCCN)NC(=O)[C@H](CC(C)C)NC(=O)[C@H](Cc2c[nH]c3ccccc23)NC(=O)[C@H](CCC(N)=O)NC1=O [E11_SS] (H-DLSKQMEEECVRLYIQWLKDGGPSSGRPPPC-OH; disulfide 10-31)	remained the same
